Data on one compound can be found in publication PMC7140522, “The Pyrazolo[3,4-d]pyrimidine Derivative, SCO-201, Reverses Multidrug Resistance Mediated by ABCG2/BCRP” (Cells, 2020).

Series [1] relates to HT29SN-38-RES cells. As to the kind of experiment: MDR reversal analysis with MTT assay, HT29SN-38-RES. It is filed as cell-based, human. The following applies: 72 hours, oxaliplatin is not a substrate for BCRP. The protocol:
Control conditions consisted of full growth medium. All treatments were performed in triplicate.
Background: Tetrazolium assays rely on reduction of a dye to a coloured formazan, in cell work by metabolically active cells.

Series [2] deals with CYP1A. As to the kind of experiment: CYP induction in human hepatocytes, CYP1A enzyme activity. It counts as in vitro ADME.
Series [3] has as its system CYP3A. Nature of the series: CYP induction in human hepatocytes, CYP3A mRNA. It counts as in vitro ADME. The following applies: plated human hepatocytes.
The target of series [4] is CYP2C8 (Homo sapiens, UniProt P10632). As to the kind of experiment: biochemical.
Chain of CYP2C8 (P10632 whole entry): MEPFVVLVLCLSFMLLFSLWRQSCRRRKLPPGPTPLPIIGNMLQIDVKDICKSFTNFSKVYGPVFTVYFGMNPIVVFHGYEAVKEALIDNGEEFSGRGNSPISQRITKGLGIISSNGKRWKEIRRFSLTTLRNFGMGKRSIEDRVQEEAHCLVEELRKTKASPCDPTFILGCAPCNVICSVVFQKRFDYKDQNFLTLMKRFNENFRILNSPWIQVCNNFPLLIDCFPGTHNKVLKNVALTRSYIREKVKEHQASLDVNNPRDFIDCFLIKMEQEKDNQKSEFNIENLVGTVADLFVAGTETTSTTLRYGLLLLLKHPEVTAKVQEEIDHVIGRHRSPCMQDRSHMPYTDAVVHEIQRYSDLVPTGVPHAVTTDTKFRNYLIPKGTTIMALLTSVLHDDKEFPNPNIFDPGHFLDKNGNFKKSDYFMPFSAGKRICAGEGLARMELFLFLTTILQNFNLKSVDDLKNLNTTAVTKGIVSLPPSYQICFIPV
Details of series [5]: method as in PMID 26260222. The following applies: mice; cited from earlier work.
The target of series [6] is CYP1A (Homo sapiens, UniProt P05177).
Chain of CYP1A (Homo sapiens, UniProt P05177) (P05177 whole entry): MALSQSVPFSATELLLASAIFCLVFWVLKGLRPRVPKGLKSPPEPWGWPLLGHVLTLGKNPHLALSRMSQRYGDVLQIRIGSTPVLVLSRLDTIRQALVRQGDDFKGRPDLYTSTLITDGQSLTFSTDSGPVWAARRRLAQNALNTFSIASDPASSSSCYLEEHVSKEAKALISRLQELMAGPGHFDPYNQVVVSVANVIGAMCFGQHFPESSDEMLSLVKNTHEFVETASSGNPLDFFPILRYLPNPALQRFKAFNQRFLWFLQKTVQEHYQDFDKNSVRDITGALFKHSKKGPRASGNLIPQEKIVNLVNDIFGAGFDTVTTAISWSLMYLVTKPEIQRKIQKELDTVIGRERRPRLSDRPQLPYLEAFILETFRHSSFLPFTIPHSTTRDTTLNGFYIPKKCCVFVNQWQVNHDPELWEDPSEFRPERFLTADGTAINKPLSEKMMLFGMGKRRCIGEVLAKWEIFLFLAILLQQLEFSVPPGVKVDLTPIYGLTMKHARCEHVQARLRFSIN
In series [7] the test system is CYP3A. As to the kind of experiment: CYP induction in human hepatocytes, CYP3A enzyme activity. It counts as in vitro ADME. Here is the method:
The following procedure was carried out to test whether SCO-201 induces CYP1A, CYP2B6, and CYP3A activities in human hepatocytes. The procedure was designed in accordance with the FDA Guidance for Industry on Drug Interaction Studies (2006). Male and female human hepatocytes were thawed and plated into collagen-coated 96-well plates in serum-containing medium (plating medium) at a density of 0.7 × 10^6 viable cells/mL. The hepatocytes were cultured in a humidified incubator at 37 °C and 5% CO2. At 4 h post plating, human hepatocytes were washed once with fresh plating medium, followed by overnight incubation. At 24 h after plating, the plating medium was removed, and the hepatocytes were overlaid with extracellular matrix (ECM) (Sigma) or Matrigel (BD) in the serum-free medium (incubation medium), and then incubated for another 24 h. Incubation medium with 0.1% DMSO was used as the negative control. After the 2-day recovery period, the hepatocytes were treated with SCO-201 or a known inducer (Table S3) in the incubation medium on day 3 and day 4. The known inducer was tested as the positive control. On day 5, the medium was removed, and the cells were incubated with the respective CYP substrate in Krebs–Henseleit buffer (pH 7.4) containing 3 mM salicylamide for 30 min. The reaction was terminated by transferring the incubation mixture to an equal volume of acetonitrile/methanol mixture (1/1, v/v). Samples were mixed and centrifuged. Supernatants are used for HPLC-MS/MS analysis of the corresponding metabolite. Peak areas corresponding to the metabolite were recorded. The assay was rendered valid if enzyme activity with the positive control was at least twofold greater than negative control.
Cells 2020, 9, x FOR PEER REVIEW 9 of 9
Substrate (conc.) Metabolite Assay
Ethoxyresorufin (2 µM) Resorufin CYP1A
Bupropion (200 µM) Hydrozyl-bupropion CYP2B6
Midazolam (10 µM) 1-hydroxymidazolam CYP3A
139 Table S3: In vitro DMPK analysis: CYP induction.
140 were applied as inducers of the investigated CYPs.
144 References for supplementary materials
146 1. […]

The target in series [8] is T1, BCRP (Homo sapiens, UniProt Q9UNQ0).
T1 sequence (Q9UNQ0 1-655): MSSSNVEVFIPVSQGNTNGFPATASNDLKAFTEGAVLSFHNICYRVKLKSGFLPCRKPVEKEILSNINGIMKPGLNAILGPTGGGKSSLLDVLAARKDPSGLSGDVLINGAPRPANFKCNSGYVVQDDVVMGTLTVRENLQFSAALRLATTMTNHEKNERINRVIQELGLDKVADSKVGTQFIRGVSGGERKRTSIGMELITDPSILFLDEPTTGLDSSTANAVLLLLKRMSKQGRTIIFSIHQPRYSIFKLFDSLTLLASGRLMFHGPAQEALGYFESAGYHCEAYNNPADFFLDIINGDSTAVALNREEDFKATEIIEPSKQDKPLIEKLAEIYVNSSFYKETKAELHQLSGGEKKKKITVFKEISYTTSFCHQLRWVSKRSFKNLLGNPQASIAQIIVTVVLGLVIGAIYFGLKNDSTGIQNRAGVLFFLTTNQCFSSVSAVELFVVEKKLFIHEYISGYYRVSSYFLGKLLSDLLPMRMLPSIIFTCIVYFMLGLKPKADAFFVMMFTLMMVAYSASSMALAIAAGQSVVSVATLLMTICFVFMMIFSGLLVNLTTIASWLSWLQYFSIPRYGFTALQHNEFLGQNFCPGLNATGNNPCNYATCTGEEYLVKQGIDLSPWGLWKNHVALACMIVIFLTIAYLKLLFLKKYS
As to the kind of experiment: Cellular dye efflux assay (Hoechst 33342) in HT29SN-38-RES cells. It is filed as cell-based. Also on record: endogenous in cells; host or cells: HT29 SN-38-RES (drug-selected HT29).
Method: HT29 cells were seeded either into a 96-well Nunclon plate (Thermo Fisher Scientific, Roskilde, Denmark) at a density of 6000 cells/well (for Celigo Imaging Cytometry) or into a Nunc 6-well plate at a density of 150,000 cells/well (for fluorescence microscopy). […] Then, the cells were washed with ice-cold PBS to remove excess Hoechst dye. Drugs were added again and the cells were incubated for 1h at 37 °C. The plates were analyzed with either fluorescence microscopy (6-well plates) or imaging cytometry (96-well plates). For the Celigo Imaging Cytometry (Lawrence, MA, USA), the application “Target 1 + 2 (merge)” was used, and the mean fluorescence intensities were measured and data presented as percentage of parental control.

The target in series [9] is CYP3A (Homo sapiens, UniProt P08684). As to the kind of experiment: in vitro. The following applies: both, pooled human liver microsomes, pH 7.4, probe testosterone. On the technique in general: Liver microsomes are vesicles of endoplasmic reticulum, rich in cytochrome P450 enzymes.
Chain of CYP3A (Homo sapiens, UniProt P08684) (P08684 2-503): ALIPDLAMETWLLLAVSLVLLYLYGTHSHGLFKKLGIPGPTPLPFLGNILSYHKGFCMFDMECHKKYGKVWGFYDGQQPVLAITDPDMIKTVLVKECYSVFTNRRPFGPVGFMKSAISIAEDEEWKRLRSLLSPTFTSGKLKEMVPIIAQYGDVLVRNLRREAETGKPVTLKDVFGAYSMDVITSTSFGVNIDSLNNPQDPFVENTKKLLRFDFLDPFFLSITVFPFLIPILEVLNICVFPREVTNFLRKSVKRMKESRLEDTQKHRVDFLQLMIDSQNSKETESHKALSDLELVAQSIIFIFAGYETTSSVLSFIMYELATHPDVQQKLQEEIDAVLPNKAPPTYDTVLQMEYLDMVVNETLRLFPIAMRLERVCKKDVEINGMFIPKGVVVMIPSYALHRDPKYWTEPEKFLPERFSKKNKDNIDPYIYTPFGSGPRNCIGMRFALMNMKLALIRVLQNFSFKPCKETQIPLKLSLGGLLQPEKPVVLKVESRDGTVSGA
The test system of series [10] is CYP1A2. Nature of the series: CYP induction in human hepatocytes, CYP1A2 mRNA. The following applies: plated human hepatocytes. It counts as in vitro ADME.
For series [11], the system named is CYP1A, CYP2B6, CYP2C8, CYP2C9, CYP2C19, CYP2D6, CYP3A. As to the kind of experiment: in vitro. The following applies: both, human, pooled human liver microsomes, pH 7.4.
Method: The reaction was initiated by adding a Nicotinamide adenine dinucleotide phosphate (NADPH)-generating system. The reaction was allowed for 10 min and stopped by transferring the reaction mixture to acetonitrile/methanol. Samples were mixed and centrifuged. Supernatants were used for HPLC-MS/MS of the respective metabolite.
Data analysis: Peak areas corresponding to the metabolite were recorded. The percent of control activity was calculated by comparing the peak area in the presence of the test compound to the control samples containing the same solvent. […] The IC50 value (concentration causing a half-maximal inhibition of the control value) was determined by non-linear regression analysis of the concentration–response curve using the Hill equation.
The target in series [12] is T1, BCRP. As to the kind of experiment: […] ATPase assay with recombinant BCRP membranes. It counts as biochemical. Also on record: purchased Solvo Biotechnology (via Sigma-Aldrich/Merck) SB-BCRP-M. The protocol: After incubation with test compounds, MgATP was added to each well and incubated at 37 °C for 10 min. The ATPase reaction was stopped by the addition of 1x Developer solution at room temperature (RT). Two minutes after, 100 µL Blocker solution was added and the plate was incubated for 30 min at 37 °C for 30 min. The optical densities were measured at 620 nm using a PowerWave X Microplate spectrophotometer (BioTek, Bad Friedrichshall, Germany).

[13] abbreviates: Donor 1, read-out: Mean Fold Induction of mRNA at 1× 10^−4 M.
Where [14] appears, read: Donor 2, read-out: Mean Fold Induction of mRNA at 1× 10^−4 M.
[15] abbreviates: Donor 3, read-out: Mean Fold Induction of mRNA at 1× 10^−4 M.

Like-named read-outs stand apart in the source and are kept apart here.

What is called IC50 is the point on the concentration scale where inhibition reaches its midpoint. Take `Nc1nc(-c2ccccc2)nc2[nH]nc(Nc3ccc(C(F)(F)F)cc3)c12` [SCO-201]: the “combinatorial effect with oxaliplatin on cell viability” value in series [1] is listed as “no added effects”. The “Mean Fold Enzyme Activity Induction at 1 × 10^−4 M” value worked out at 1 in series [2] (Donor 1); 0.7 in series [2] (Donor 2); 0.7 in series [2] (Donor 3); 1.3 in [7] (Donor 1); 2.0 in series [7] (Donor 2); 0.4 in series [7] (Donor 3). Besides, the fold induction at 2 days in series [3] (setting [13]) came to 0.25; in [3] (setting [14]) it was 0.25; in series [3] (setting [15]), 0.32; in series [10] (setting [13]), 0.24; in [10] (setting [14]) it was 0.39; in series [10] (setting [15]), 0.26. The IC50 in series [4] is over 100 µM; in series [6] it was over 100 µM; in series [8] (imaging cytometry, read-out: IC50, accumulation of Hoechst dye) it was 0.45 µM. In series [5], the oral activity entry is “orally active”. Further, the “Hoechst accumulation in resistant cells” value in [8] (fluorescence microscopy and imaging cytometry) is “accumulated to the level of the parental control cells”. The IC50 at 10 min in series [9] is over 100 µM; in series [11], at least 100 µM. Further, the “ATPase activity of BCRP, sulfasalazine-stimulated” value in [12] (SCO-201 added to sulfasalazine-stimulated BCRP) is on record as “decreased in a dose-dependent manner”. In addition, the “ATPase activity of BCRP, basal” value in [12] (in the absence of sulfasalazine) is “decreased dose-dependently”. Also, the “SN-38-stimulated ATPase activity of BCRP” value in series [12] (in the presence of 0.5 µM or 1.5 µM SCO-201) was “shifted downwards”.
